Reference: EP1986011A2, “Peptide epitopes recognized by disease promoting CD4+ T lymphocytes” (MGI PHARMA Biologics, Inc., priority 1999, dated 2008)

Legend:
peripheral blood T cells = test: T cell proliferation assay (Epitope Verification) with synthetic IA-2 peptides; format: cell-based, human; parameters: key: significant ("POS" in Table 2) proliferative responses; conditions: HLA-DR4 IDDM patient DC (I), DRB1 genotype 0403.0405; peptide 10 µg/ml, 5 days; significant = SI >2.0 and >40% wells positive
Experimental: To establish that peptide epitopes identified are relevant to IDDM (i.e., that they are recognized by CD4+ T cells of patients with IDDM or pre-IDDM expressing the DR4 molecule but not by non-diabetic controls also expressing the DR4 molecule), T cell proliferation assays were carried out using synthetic peptides having amino acid sequences based upon the peptides identified by mass spectrometry to be derived from IA-2ic. Peptides were synthesized using Fmoc chemistry with an Applied Biosystems SYNERGY peptide synthesizer and purified by preparative RP-HPLC on a Waters 2690 Alliance system equipped with a Radial Compression Module. […] Peripheral blood mononuclear cells from recent onset IDDM patients (<6 months from diagnosis) and healthy controls expressing the appropriate HLA DR4 molecules were separated by density gradient centrifugation and co-cultured in wells of 96-well U-bottom plates with peptides at a concentration of 10 µg/ml for 5 days in 150 µl RPMI 1640/10% pooled normal AB serum, followed by pulsing with 0.5 µCi [^3H]-thymidine/well and harvesting onto filters for radioactivity counting measured in counts per minute (cpm). […] Results were expressed as a stimulation index (SI) which is the ratio of the cpm obtained from cultures containing peptide to the cpm obtained from cultures without peptide (mean cpm of 12 wells in each case). […]

[1] = system: isolated HLA-DR4 molecules; test: Binding inhibition assay: inhibition of binding of biotinylated invariant chain indicator peptide; parameters: species or system human; conditions: HLA-DR4 10 µg/ml, indicator peptide 1 µM, varying concentrations of test peptide, overnight at room temperature (Fig. 3)
Experimental: Synthetic peptides with amino acid sequences based on the 6 core regions identified by the IMF were tested for their ability to bind to isolated HLA-DR4 molecules in a binding inhibition assay performed essentially as previously described [Chicz et al. (1997), J. Immunol. 159: 4935-4942]. In brief, aliquots of immunopurified preparation of HLA-DR4 (final concentration of 10 µg/ml) were incubated with a biotinylated HLA-DR4 binding peptide (consisting of residues 98-117 of class II MHC invariant chain) ("the indicator peptide") (1 µM) and varying concentrations of the test peptides in 0.2 ml tubes. After an overnight incubation at room temperature, the contents of each tube were transferred to a well of a 96-well plastic microtiter plate precoated with anti-HLA-DR4 antibody. The microtiter plates were rocked for 60 min at room temperature and unbound material was removed by rigorous washing. The relative amount of bound standard peptide in each well was determined by measuring color development after addition of streptavidin-conjugated alkaline phosphatase, washing, and adding a chromogenic alkaline phosphatase substrate.
In order to test for the ability of the 6 consensus peptides representing the 6 core regions defined by the IMF described in Example 1, a binding inhibition assay was performed (Fig. 3). […]

Substance | T cell response to IA-2 peptide (peripheral blood T cells) | binding to HLA-DR4 molecules [1]
LAKEWQALCAYQAEPNTCATAQGE [709-732, peptide consisting of residues 709-732 of IA-2] | POS | bind strongly
Ii-c: a peptide consisting of residues 98-117 of class II MHC invariant chain (PKPPKPVSKMRMATPLLMQA) [reference compound] |  | bind with intermediate avidity
